Measurements reported in PMC6591177, “Small Molecule IL-36γ Antagonist as a Novel Therapeutic Approach for Plaque Psoriasis” (Scientific Reports, 2019).

What was measured:
[1] = test system: IL-36γ evoked CXCL1 release from Mouse NIH-3T3 cells; experiment: IL-36γ evoked CXCL1 release, mouse NIH-3T3 cells; type: cell-based; details: human IL-36γ evoked CXCL1 release, ± S.D.
Description: The immortalized human keratinocyte cell line HaCaT and mouse fibroblast NIH-3T3 cell line were maintained in culture in DMEM with 10% fetal bovine serum and 1% penicillin/streptomycin added (Sigma). Cells were seeded in 96-well tissue culture plates (Corning) at 25,000 cells per well and allowed to adhere and recover overnight at 37 °C in an incubator. Cells were rinsed with PBS (Sigma) and treated with cytokines diluted in 200 μL/well of the medium (DMEM with 0.5% FBS and 1% penicillin/streptomycin) as indicated. In inhibition mode, the agonist concentration used was at the EC80 for chemokine production and the cells were pre-treated with inhibitors for 30 min prior to adding the agonist. After 24 h of treatment, supernatants were collected and IL-8 and CXCL1[28] levels were assessed using a custom immunoassay (Meso Scale Discovery). EC50/IC50 values were estimated from a four-parameter logistic fit using Prism software (GraphPad).

human IL-36γ = biological target: T1, human IL-36γ (Homo sapiens, UniProt Q9NZH8); experiment: Thermal shift assay, human IL-36γ; type: binding; details: 100 μM compound; read-out: increase of melting temperature of human IL-36γ
T1 construct: His6-SUMO-human IL-36γ (18–169); His6-SUMO (N, cleaved yes); made in house; host or cells: E. coli BL21 (DE3)
T1 sequence (Q9NZH8 18-169): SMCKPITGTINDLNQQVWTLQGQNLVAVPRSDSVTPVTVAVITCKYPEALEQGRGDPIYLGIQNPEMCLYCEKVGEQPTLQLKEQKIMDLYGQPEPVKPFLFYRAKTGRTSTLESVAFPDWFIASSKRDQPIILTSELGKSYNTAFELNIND
Description: Thermal shift assays[30] were performed on a Roche LightCycler 480 instrument using Sypro Orange Dye (Invitrogen). Reactions consisted of 0.5–2 µM purified recombinant protein in PBS, pH 7.4, a 1/500 dilution of the stock Sypro Orange reagent, and 100 µM test compounds, resulting in a final DMSO concentration of 1%. The samples were heated from 20 °C to 95 °C at a rate of 0.25 °C per second.

[2] = test system: human IL-36γ induced plasma CXCL1; experiment: hIL-36γ induced CXCL1 release in mouse plasma; type: in vivo; details: C57BL/6 mice, compounds 10, 30 and 100 mg/kg p.o.; antibody i.p.
Source text: Female C57BL/6 mice (9–10 weeks old, 19–23 g) were purchased from Charles River Laboratories. All animal procedures were approved by AbbVie’s Institutional Animal Care and Use Committee (IACUC) and performed in accordance with the relevant IACUC guidelines and regulations. To examine engagement of human IL-36γ with antagonists under in vivo conditions, a mouse acute CXCL1 release assay was established which was similar to one previously reported. Plasma CXCL1 secretion was induced by subcutaneous injection of 2 μg human IL-36γ (in 100 μL PBS) into C57BL/6 mice. Blood was withdrawn via cardiac puncture 2 h after the challenge with IL-36γ. A-552 and A-553 were dosed at 10, 30 and 100 mg/kg p.o. 45 min before IL-36γ challenge. Anti-IL36R antibodies were dosed i.p. at 24 hours before IL-36γ challenge. Plasma CXCL1 levels were analyzed using MSD V-PLEX kit.

[3] = test system: 3D human skin equivalents; experiment: IL-36γ induced 3D skin equivalent model; type: cell-based
Description: Hematoxylin & eosin (H&E) staining and immunohistochemistry (IHC) were performed using a Leica ST5010 autostainer or Leica Bond RX automated immunostainer. Standardized IHC protocols were used for anti-loricrin staining (Abcam AB85679). Stained tissue slides were digitized for image analysis using a Perkin Elmer P250 whole slide digital pathology slide scanner with 20X objective and extended focus scanning parameters. For quantitative analysis, N = 3 raft samples were analyzed per condition for each stain using whole slide digital analysis software (Indica Labs HALO). Staining was normalized to the length of the raft sample analyzed.
3D skin equivalents (SOR-300-FT-CTR) comprised of human neonatal keratinocytes and fibroblasts were purchased from MatTek, equilibrated for one day in proprietary formulated media (SOR-300-FT-CTR-MM) and then treated as indicated. Treatment groups contained hIL-36γ at 300 ng/mL, 10 μM of A-552, 10 μg/mL anti-IL36R antibody, 10 μg/mL IL-36RA, or 10 μg/mL IgG isotype control either alone or in combination with hIL-36γ. Control skin equivalents were treated with media only. Skin equivalents were treated for three days, with media collected for cytokine release studies at day two and replaced with fresh treatment media. After three days the skin equivalents were either placed in 10% neutral buffered formalin solution (for histology) or frozen (for qRT-PCR).
To measure IL-6, IL-8 and CXCL1 release from 3D skin equivalents diluted sample media collected at day 2 of the treatment (see above) was used in conjunction with V-PLEX multiplex immunoassay for IL-6 and IL-8 and a U-PLEX immunoassay for CXCL1 (Meso Scale Discovery) according to the manufacturers’ protocols.
RNA from frozen 3D skin equivalents was isolated using miRNeasy Mini Kit (Qiagen) per the manufacturers’ instructions. For qRT-PCR determination a CFX384 Real-Time System C1000 Touch Thermocycler was used. […] Each transcript measured was presented as a fold change compared to control using the ∆∆CT method as RNA fold increase where RPLP0 was used as a housekeeping gene.

human IL-36β = biological target: T2, human IL-36β (Homo sapiens, UniProt Q9NZH7); experiment: Affinity for human IL-36β; type: binding
T2 sequence (Q9NZH7 5-164): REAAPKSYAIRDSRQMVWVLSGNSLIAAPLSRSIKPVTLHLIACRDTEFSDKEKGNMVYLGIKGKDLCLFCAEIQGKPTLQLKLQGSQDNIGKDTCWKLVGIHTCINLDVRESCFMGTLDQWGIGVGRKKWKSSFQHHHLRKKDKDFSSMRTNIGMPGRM

- ΔTm at 100 µM (human IL-36γ): 6.1 °C
- affinity for human IL-36β (human IL-36β): does not show affinity
SMILES: COC(c1ccccc1)(c1ccccc1)[C@H](Oc1nc(C)cc(-c2ccc(C)c(N)c2)n1)C(=O)O [Compound A-552]
- Ki [1]: 54 ± 10 nM
- effect on hIL-36γ induced plasma CXCL1 release (in words) [2]: robustly attenuated CXCL1 levels in plasma in a dose-dependent manner
- effect on hIL-36γ induced changes in morphology, gene expression and cytokine production ([3]; 0.3 μg/mL hIL-36γ, 10 μM A-552, 10 μg/mL antibody or IL-36Ra, three days): attenuated
- effect on 3D human skin equivalents when treated alone ([3]; without hIL-36γ): no appreciable effect
